Where a SMILES comes first, the peptide text is derived from it. The star is where a group is joined. X1 = O=C(O)CN(CCN(CC(=O)O)CC(=O)O)CCN(CC(=O)O)CC(=O)NCCN1C(=O)CC(*)C1=O; Myristoyl = CCCCCCCCCCCCCC(=O)*
How the values were obtained:
[1] = system: 5T33 murine myeloma cells; test: Comparative cell uptake (cell radiolabelling yield), 10^5 cells, 2 MBq; assay type: cell-based
Procedure: Cell pellets were obtained by centrifugation, washed and gamma-counted.
(§1) After cell labelling, cells were washed twice with PBS and 300 μL of fresh growth media was added. Uptake efficiency was quantified at this time-point by measuring pellet and supernatant in the γ-counter. At 2, 5 and 20 h after addition of fresh media, cells were washed twice and activity in both the supernatant (original supernatant and washes) and pellet was measured using a γ-counter. Efflux was quantified as the activity of the supernatant divided by the total activity (supernatant + pellet). Cell viability was assessed prior to radiolabelling and at each time point by trypan blue exclusion.[54]

[2] = system: 5T33 murine myeloma cells; test: Cell viability, trypan blue exclusion assay
Procedure: Cell viability was assessed using a trypan blue exclusion assay (Fig. 2(d) and (e)).
as §1

[3] = system: 5T33 murine myeloma cells; test: Efflux / retention of indium-111 by radiolabelled cells; assay type: cell-based; settings: 5T33 cells washed after radiolabelling, γ-counter, SD of 3 biological replicates
Procedure: To measure efflux, cells were washed after radiolabelling and re-incubated in fresh growth medium for 2–20 h.
as §1

NSG male mice = test: SPECT/CT imaging and ex vivo biodistribution; assay type: in vivo, mouse
Procedure: A SPECT/CT scan was acquired for 2 h immediately after injection (Fig. 3(a)).
Animal imaging studies were ethically reviewed by an Animal Welfare & Ethical Review Board at King's College London and carried out in accordance with the Animals (Scientific Procedures) Act 1986 (ASPA) UK Home Office regulations governing animal experimentation. […] Animals were maintained under isoflurane inhalation anaesthesia (2– 2.5% Isoflurane in air) for 2 h post-injection. […] The whole body SPECT scan time was 30 min × 4, (conducted sequentially) with a frame time of 40 s (using a 4-head scanner with 4 × 9 [1.4 mm] pinhole collimators in helical scanning mode) followed by a helical CT (45 kVP X-ray source, 1000 ms exposure time in 180 projections over 7.5 min). After this, animals were allowed to recover. SPECT/CT scans were acquired again, 1 day PI, after which all animals were culled (by increasing the dose of anaesthesia followed by cervical dislocation to confirm death) and organs/tissues harvested, weighed and radioactivity counted using a gamma counter. SPECT/CT images were reconstructed in a 256 × 256 matrix using HiSPECT (ScivisGmbH), a reconstruction software package and visualised and quantified using VivoQuant v.3.0 software (InVicro LLC., Boston, USA).

For `[111In+3].[O-]c1cccc2cccnc12.[O-]c1cccc2cccnc12.[O-]c1cccc2cccnc12` [[^111In]In-(oxine)3], the Cell radiolabelling yield ([1]; 1 × 10^5 5T33 cells in 200 μL, 2 MBq, 37 °C, DTPA-CTP tracer 3 h in serum-containing media, oxine tracer 30 min in serum-free media, washed, γ-counted, SD of 3 biological replicates) was 20.6 ± 6.1 %AR, the “Average radioactivity per cell” value ([1]; 1 × 10^5 5T33 cells, 2 MBq added radioactivity, corresponds to the cell radiolabelling yield) was 4.1 ± 1.0 Bq per cell and the “Cells viable after radiolabelling” value ([2]; 5T33 cells, 20 h after radiolabelling, trypan blue exclusion, prior to radiolabelling 89 ± 4% (DTPA-CTP group) and 96 ± 0.3% (oxine group), 3 biological replicates) was 74 ± 6%. The “Indium-111 remaining associated with cells” value ([3]; 2 h after re-incubation in fresh growth medium) was 76.0 ± 5.1% and the “Indium-111 remaining associated with cells” value ([3]; 20 h after re-incubation in fresh growth medium) was 46.0 ± 9.6%.
For `CCCCCCCCCCCCCC(=O)NCCCC[C@H](NC(=O)CCCCCCCCCCCCC)C(=O)N[C@@H](CO)C(=O)N[C@@H](CO)C(=O)N[C@@H](CCCCN)C(=O)N[C@@H](CO)C(=O)N1CCC[C@H]1C(=O)N[C@@H](CO)C(=O)N[C@@H](CCCCN)C(=O)N[C@@H](CCCCN)C(=O)N[C@@H](CC(=O)O)C(=O)N[C@@H](CC(=O)O)C(=O)N[C@@H](CCCCN)C(=O)N[C@@H](CCCCN)C(=O)N1CCC[C@H]1C(=O)NCC(=O)N[C@@H](CC(=O)O)C(=O)N[C@@H](CSC1CC(=O)N(CCNC(=O)CN(CCN(CCN(CC(=O)O)CC(=O)O)CC(=O)O)CC(=O)O)C1=O)C(=O)O` (some centres unmarked) [[^111In]In-DTPA-CTP, metal not drawn] (Myristoyl-K(Myristoyl)SSKSPSKKDDKKPGDC(X1)-OH), the “Cells viable after radiolabelling” value ([2]; 20 h) was 88 ± 2%, the “Localisation of indium-111 activity by SPECT/CT” value (NSG male mice; NSG male mice, intravenous via tail vein, 0–2 h PI, one animal per group scanned) was “indium-111 activity in the blood pool and liver” and the “Time to dissociation from cell membranes post-administration of cells” value (NSG male mice; [^111In]In-DTPA-CTP-labelled 5T33 cells, intravenous, NSG mice, inferred from SPECT) was 1 to 2 h.
